Assay results reported in publication PMC7269481, “ZN148 Is a Modular Synthetic Metallo-β-Lactamase Inhibitor That Reverses Carbapenem Resistance in Gram-Negative Pathogens In Vivo” (Antimicrobial Agents and Chemotherapy, 2020).

How the values were obtained:
[1] = test system: MBL-producing P. aeruginosa clinical strains; test: Carbapenem MIC, MBL-producing P. aeruginosa; format: cell-based; details: 50 μM ZN148; n = 52
Experimental: MICs of carbapenems alone and in combination with inhibitors were determined by broth microdilution according to the Clinical and Laboratory Standards Institute (CLSI) guidelines ([48]) using either premade plates (TREK Diagnostic Systems/Thermo Fisher Scientific, East Grinstead, United Kingdom) with meropenem or in-house-prepared plates with meropenem, imipenem, and doripenem. ZN148 and other inhibitors were tested at a fixed concentration of 50 μM. Cation-adjusted Mueller-Hinton medium (TREK Diagnostic Systems/Thermo Fisher Scientific; Becton Dickinson, Franklin Lakes, NJ) were used as growth medium. The plates were incubated for 20 h at 37°C. ZN148, ZN222, ZN223, ZN228, and TPA were initially tested in combination with meropenem using two indicator strains: NDM-1-producing K. pneumoniae ([49], [50]) and VIM-2-producing P. aeruginosa ([51]). The activity of ZN148 were subsequently tested against two extended strain collections: (i) in combination with meropenem against MBL-producing Enterobacterales (n = 62), MBL-producing P. aeruginosa (n = 9) and MBL- and class D carbapenemase-coproducing Enterobacterales (n = 5) from the strain collection at the Norwegian National Advisory Unit on Detection of Antimicrobial Resistance and (ii) in combination with meropenem, imipenem, and doripenem against globally collected MBL-producing E. coli (n = 87), K. pneumoniae (n = 85), P. aeruginosa (n = 52), and A. baumannii (n = 6), MBL- and class A/D carbapenemase-coproducing E. coli (n = 11), K. pneumoniae (n = 15) and A. baumannii (n = 7) at IHMA Europe, Sàrl, Switzerland. E. coli ATCC 25922 and P. aeruginosa ATCC 27853 were used as quality control strains. The MBL inhibitors were also tested for intrinsic antibacterial activity against the strains.

[2] = test system: the strains (MBL-producing Gram-negative clinical strains); test: Intrinsic antibacterial activity of the inhibitor; format: cell-based; details: concentrations up to 500 μM
Experimental: MICs of carbapenems alone and in combination with inhibitors were determined by broth microdilution according to the Clinical and Laboratory Standards Institute (CLSI) guidelines ([48]) using either premade plates (TREK Diagnostic Systems/Thermo Fisher Scientific, East Grinstead, United Kingdom) with meropenem or in-house-prepared plates with meropenem, imipenem, and doripenem. ZN148 and other inhibitors were tested at a fixed concentration of 50 μM. Cation-adjusted Mueller-Hinton medium (TREK Diagnostic Systems/Thermo Fisher Scientific; Becton Dickinson, Franklin Lakes, NJ) were used as growth medium. The plates were incubated for 20 h at 37°C. ZN148, ZN222, ZN223, ZN228, and TPA were initially tested in combination with meropenem using two indicator strains: NDM-1-producing K. pneumoniae ([49], [50]) and VIM-2-producing P. aeruginosa ([51]). […]

female BALB/c mice = test: In vivo tolerance (maximum tolerated dose study); details: weekly i.p. doses 4 to 128 mg/kg
Experimental: In vivo tolerance of ZN148 was performed by Antineo (Lyon, France). Female BALB/c mice (4 weeks old, approximately 20 g; Charles River, L’Arbresle, France) were acclimatized 4 days in the animal facility before the initiation of experiments. Groups of six mice were either untreated or treated with 200 μl of ZN148 (0.4 to 12.8 g/liter) i.p. once a week. Doses were doubled each week (4 to 128 mg/kg) in the absence of any observed weight loss or modification in behavior. Individual weights were monitored 4 days a week. The relative weights were calculated as ratios between the weight of the day and the weight at the initiation of the experiment. Animals were also followed for macroscopic modifications in behavior. The protocol for experiments in mice was approved by the University of Lyon Animal Ethics Committee (Comité d’Ethique en Expérimentation Animale de l’Université Claude Bernard [Lyon, France], authorization number DR2015-09).

VIM-2 [3] = target: T1, VIM-2 (Escherichia coli, UniProt Q5U7L7); test: Zinc content determination by ICP-MS, VIM-2; format: biochemical; details: ICP-MS after preincubation
T1 construct: made in house
Experimental: Inductively coupled plasma mass spectrometry (ICP-MS) was used to investigate the chelating property of ZN148 by measuring the zinc concentration (Zn^66) after incubation of VIM-2 with or without ZN148 in zinc depleted 50 mM HEPES buffer (pH 7.5; Chelex HEPES buffer). The Chelex buffer was prepared by stirring 2 g of Chelex resin (Bio-Rad, Hercules, CA) in 100 ml of 50 mM HEPES buffer (pH 7.5). The resin was subsequently removed by sterile filtration (Merck Millipore, 0.22 μm). VIM-2 (10 g/liter) was diluted to 12.5 mg/liter and mixed with ZN148 at different final concentrations (0, 12.5, 125, and 1250 μM) in Chelex HEPES buffer. All solutions were allowed to incubate for 30 min on ice and subsequently concentrated by centrifugation (at 4,000 × g, 4°C for 25 min) to a volume of 250 μl using centrifugal molecular cutoff filters (Merck Millipore, 10,000 Da). […] Per inhibitor concentration, at least three biological replicates were performed and injected and measured in triplicates. For the MS analysis the kinetic energy discrimination mode with a helium flow rate of 5.7 ml/min, 20 sweeps per reading, and a dwell time of 100 ms/atomic mass unit (AMU) for Zn^66 and 50 ms/AMU for Rh^103 were applied. […] The zinc concentration within the samples was determined based on an external calibration curve (0, 290, 580, 1,160, and 2,320 μg/liter). […]

VIM-2 [4] = target: T1, VIM-2; test: LC-ESI-MS of VIM-2 incubated with inhibitor; details: VIM-2 preincubated with 5 mM ZN148
Experimental: VIM-2 (8 μM final concentration) was incubated together without or with 5 mM ZN148 on ice for 30 min. Incubation was carried out in Chelex HEPES buffer (pH 7.5), and the inhibitors were diluted in Milli-Q water (Millipore/Merck) by a factor of 1,000,000 using centrifugal filters (10,000 Da; Merck). Liquid chromatography electrospray ionization Q-TOF mass spectrometry (LC-ESI-MS; Agilent Technologies, Santa Clara, CA) was performed in positive-ion mode using 0.1% formic acid in Milli-Q water and acetonitrile (VWR, Radnor, PA) at 0.4 ml/min. Spectra deconvolution was performed by using BioConfirm and MassHunter qualitative analysis (Agilent Technologies).

In the case of `CN(C[C@H](O)[C@@H](O)[C@H](O)[C@H](O)CO)C(=O)c1ccc(CN(Cc2ccccn2)Cc2ccccn2)nc1` [ZN148], the “strains with restored clinical susceptibility, in combination with doripenem” value [1] is reported as 15%, the “strains with restored clinical susceptibility, in combination with imipenem” value [1] is reported as 25% and the “strains with restored clinical susceptibility, in combination with meropenem” value [1] is reported as 17%. For the same compound, the intrinsic antibacterial activity [2] was “no intrinsic antibacterial activity”, the “clinical signs (hair loss or bristly hair, immobility, prostration) test vs control groups” value (female BALB/c mice) was “no significant differences” and the “loss of weight compared to initial weight” value (female BALB/c mice) was < 10%. For the same compound, the “zinc removed from enzyme” value (VIM-2 [3]) was ~1.8 molar equivalents and the “change in mass of VIM-2” value (VIM-2 [4]) was 46.2 ± 0.1 Da.
